# Data taken from patent publication US20070154981A1, “Insulin-producing cells derived from stem cells” (THE BOARD of TRUSTEES of the LELAND STANFORD JUNIOR …, priority 2003, published 2007).
# Test system: human NS cells
# Assay: Insulin content of IPCCs derived from human NS cells, by ELISA
# Type: cell-based
# From the text: Human NS cells from StemCells Inc. (Palo Alto, Calif.). Until stage 1, cells are maintained in neurospheres as described in Uchida et al, 2000, Proc Natl Acad Sci U S A. 2000 Dec. 19;97(26):14720-5. […]
structure (smiles),measurement,setting,value
"CC1=C(/C=C/C(C)=C/C=C/C(C)=C/C(=O)O)C(C)(C)CCC1 [retinoic acid, all-trans-Retinoic acid]",insulin levels relative to levels found in human pancreatic islets,"1 micromolar retinoic acid for 6 days, stage 2 IPCCs, ELISA",0.1%
same,insulin production compared with cells cultured with SHH and retinoic acid,retinoic acid alone versus SHH and retinoic acid,higher level of insulin production
